In ChEMBL document CHEMBL3621169, “Synthesis of tetrazole compounds as a novel type of potential antimicrobial agents and their synergistic effects with clinical drugs and interactions with calf thymus DNA” (Medchemcomm, 2015):
Converted amounts (≈) assume the structure as drawn.

Tests used:
[1] = test system: Bacillus sp.; experiment: Antibacterial activity against Bacillus proteus ATCC 13315 after 24 hrs by micro broth dilution method; type: functional; conditions: Bacillus sp. (in: firmicutes), ATCC 13315, 24 h
[2] = test system: Shigella dysenteriae; experiment: Antibacterial activity against Shigella dysenteriae ATCC 51252 after 24 hrs by micro broth dilution method; type: functional; conditions: ATCC 51252, 24 h
[3] = test system: Pseudomonas aeruginosa; experiment: Antibacterial activity against Pseudomonas aeruginosa ATCC 27853 after 24 hrs by micro broth dilution method; type: functional; conditions: ATCC 27853, 24 h
[4] = test system: Aspergillus flavus; experiment: Antifungal activity against Aspergillus flavus after 24 hrs by micro broth dilution method; type: functional
[5] = test system: Bacillus spizizenii; experiment: Antibacterial activity against Bacillus subtilis ATCC 6633 after 24 hrs by micro broth dilution method; type: functional; conditions: ATCC 6633, 24 h
[6] = test system: Candida albicans; experiment: Antifungal activity against Candida albicans ATCC 90029 after 24 hrs by micro broth dilution method; type: functional; conditions: ATCC 90029, 24 h
[7] = test system: Staphylococcus aureus; experiment: Antibacterial activity against Staphylococcus aureus ATCC 25923 after 24 hrs by micro broth dilution method; type: functional; conditions: ATCC 25923, 24 h
[8] = test system: Staphylococcus aureus; experiment: Antibacterial activity against methicillin-resistant Staphylococcus aureus N315 after 24 hrs by micro broth dilution method; type: functional; conditions: N315, 24 h
[9] = test system: Cyberlindnera jadinii; experiment: Antifungal activity against Candida utilis ATCC 9950 after 24 hrs by micro broth dilution method; type: functional; conditions: Williopsis jadinii, ATCC 9950, 24 h
[10] = test system: Micrococcus luteus; experiment: Antibacterial activity against Micrococcus luteus ATCC 4698 after 24 hrs by micro broth dilution method; type: functional; conditions: ATCC 4698, 24 h
[11] = test system: Candida; experiment: Antifungal activity against Candida mycoderma after 24 hrs by micro broth dilution method; type: functional
[12] = test system: Escherichia coli; experiment: Antibacterial activity against Escherichia coli DH52 after 24 hrs by micro broth dilution method; type: functional; conditions: DH52, 24 h
[13] = n-octanol/water partition coefficient, log P of the compound at 25 deg C after 24 hrs by saturation shake flask based UV spectroscopy; type: physicochemical
[14] = Ionization constant, pKa of the compound by UV spectroscopy; type: physicochemical

Structure (SMILES) | MIC [1] | MIC [2] | MIC [3] | MIC [4] | MIC [5] | MIC [6] | MIC [7] | MIC [8] | MIC [9] | MIC [10] | MIC [11] | MIC [12] | logP at 24 h [13] | pKa [14]
N#CCN(Cc1ccc(Cl)cc1)c1ccccc1 | 128 µg/mL (≈ 499 µM) | 128 µg/mL (≈ 499 µM) | 64 µg/mL (≈ 249 µM) | 256 µg/mL (≈ 997 µM) | 128 µg/mL (≈ 499 µM) | 128 µg/mL (≈ 499 µM) | 128 µg/mL (≈ 499 µM) | 256 µg/mL (≈ 997 µM) | 128 µg/mL (≈ 499 µM) | 128 µg/mL (≈ 499 µM) | 128 µg/mL (≈ 499 µM) | 128 µg/mL (≈ 499 µM) | – | –
CCCCCCN(Cc1nnn[nH]1)c1ccccc1 | 128 µg/mL (≈ 494 µM) | 128 µg/mL (≈ 494 µM) | 128 µg/mL (≈ 494 µM) | 64 µg/mL (≈ 247 µM) | 128 µg/mL (≈ 494 µM) | 64 µg/mL (≈ 247 µM) | 128 µg/mL (≈ 494 µM) | 256 µg/mL (≈ 987 µM) | 64 µg/mL (≈ 247 µM) | 128 µg/mL (≈ 494 µM) | 64 µg/mL (≈ 247 µM) | 128 µg/mL (≈ 494 µM) | 2.18 | 4.78
CCCCCCCCCCN(CC#N)c1ccccc1 | 128 µg/mL (≈ 470 µM) | 512 µg/mL (≈ 1880 µM) | 256 µg/mL (≈ 940 µM) | 128 µg/mL (≈ 470 µM) | 64 µg/mL (≈ 235 µM) | 128 µg/mL (≈ 470 µM) | 128 µg/mL (≈ 470 µM) | 128 µg/mL (≈ 470 µM) | 256 µg/mL (≈ 940 µM) | 128 µg/mL (≈ 470 µM) | 128 µg/mL (≈ 470 µM) | 64 µg/mL (≈ 235 µM) | – | –
Clc1ccc(CN(Cc2nnn[nH]2)c2ccccc2)c(Cl)c1 | 32 µg/mL (≈ 95.7 µM) | 64 µg/mL (≈ 191 µM) | 32 µg/mL (≈ 95.7 µM) | 16 µg/mL (≈ 47.9 µM) | 32 µg/mL (≈ 95.7 µM) | 16 µg/mL (≈ 47.9 µM) | 32 µg/mL (≈ 95.7 µM) | 64 µg/mL (≈ 191 µM) | 8 µg/mL (≈ 23.9 µM) | 64 µg/mL (≈ 191 µM) | 8 µg/mL (≈ 23.9 µM) | 16 µg/mL (≈ 47.9 µM) | 1.67 | 4.54
N#CCN(Cc1ccc(Cl)c(Cl)c1)c1ccccc1 | 256 µg/mL (≈ 879 µM) | 128 µg/mL (≈ 440 µM) | 256 µg/mL (≈ 879 µM) | 256 µg/mL (≈ 879 µM) | 128 µg/mL (≈ 440 µM) | 64 µg/mL (≈ 220 µM) | 256 µg/mL (≈ 879 µM) | 256 µg/mL (≈ 879 µM) | 256 µg/mL (≈ 879 µM) | 256 µg/mL (≈ 879 µM) | 128 µg/mL (≈ 440 µM) | 256 µg/mL (≈ 879 µM) | – | –
CCn1cc(C(=O)O)c(=O)c2cc(F)c(N3CCNCC3)cc21 [NORFLOXACIN] | 1 µg/mL (≈ 3.13 µM) | 0.5 µg/mL (≈ 1.57 µM) | 0.5 µg/mL (≈ 1.57 µM) | – | 1 µg/mL (≈ 3.13 µM) | – | 2 µg/mL (≈ 6.26 µM) | 0.5 µg/mL (≈ 1.57 µM) | – | 0.5 µg/mL (≈ 1.57 µM) | – | 0.5 µg/mL (≈ 1.57 µM) | – | –
Clc1ccc(CN(Cc2nnn[nH]2)c2ccccc2)cc1Cl | 128 µg/mL (≈ 383 µM) | 64 µg/mL (≈ 191 µM) | 64 µg/mL (≈ 191 µM) | 32 µg/mL (≈ 95.7 µM) | 64 µg/mL (≈ 191 µM) | 64 µg/mL (≈ 191 µM) | 128 µg/mL (≈ 383 µM) | 128 µg/mL (≈ 383 µM) | 32 µg/mL (≈ 95.7 µM) | 128 µg/mL (≈ 383 µM) | 16 µg/mL (≈ 47.9 µM) | 64 µg/mL (≈ 191 µM) | 1.63 | 4.49
Cc1ccc(N(Cc2nnn[nH]2)Cc2ccc(F)cc2F)cc1 | 64 µg/mL (≈ 203 µM) | 64 µg/mL (≈ 203 µM) | 32 µg/mL (≈ 101 µM) | 32 µg/mL (≈ 101 µM) | 64 µg/mL (≈ 203 µM) | 32 µg/mL (≈ 101 µM) | 64 µg/mL (≈ 203 µM) | 64 µg/mL (≈ 203 µM) | 32 µg/mL (≈ 101 µM) | 64 µg/mL (≈ 203 µM) | 16 µg/mL (≈ 50.7 µM) | 64 µg/mL (≈ 203 µM) | 1.42 | 4.23
COc1ccc(N(Cc2nnn[nH]2)Cc2ccc(Cl)cc2Cl)cc1 | 32 µg/mL (≈ 87.9 µM) | 32 µg/mL (≈ 87.9 µM) | 32 µg/mL (≈ 87.9 µM) | 16 µg/mL (≈ 43.9 µM) | 32 µg/mL (≈ 87.9 µM) | 16 µg/mL (≈ 43.9 µM) | 32 µg/mL (≈ 87.9 µM) | 64 µg/mL (≈ 176 µM) | 8 µg/mL (≈ 22 µM) | 32 µg/mL (≈ 87.9 µM) | 8 µg/mL (≈ 22 µM) | 32 µg/mL (≈ 87.9 µM) | 1.58 | 4.29
CCCCCCCCCCN(Cc1nnn[nH]1)c1ccccc1 | 64 µg/mL (≈ 203 µM) | 64 µg/mL (≈ 203 µM) | 128 µg/mL (≈ 406 µM) | 32 µg/mL (≈ 101 µM) | 32 µg/mL (≈ 101 µM) | 32 µg/mL (≈ 101 µM) | 64 µg/mL (≈ 203 µM) | 32 µg/mL (≈ 101 µM) | 16 µg/mL (≈ 50.7 µM) | 32 µg/mL (≈ 101 µM) | 32 µg/mL (≈ 101 µM) | 32 µg/mL (≈ 101 µM) | – | 4.87
Cc1ccc(N(CC#N)Cc2ccc(F)cc2F)cc1 | 128 µg/mL (≈ 470 µM) | 128 µg/mL (≈ 470 µM) | 256 µg/mL (≈ 940 µM) | 64 µg/mL (≈ 235 µM) | 256 µg/mL (≈ 940 µM) | 64 µg/mL (≈ 235 µM) | 128 µg/mL (≈ 470 µM) | 256 µg/mL (≈ 940 µM) | 128 µg/mL (≈ 470 µM) | 128 µg/mL (≈ 470 µM) | 128 µg/mL (≈ 470 µM) | 128 µg/mL (≈ 470 µM) | – | –
N#CCN(Cc1ccc(F)cc1F)c1ccccc1 | 256 µg/mL (≈ 991 µM) | 256 µg/mL (≈ 991 µM) | 128 µg/mL (≈ 496 µM) | 256 µg/mL (≈ 991 µM) | 256 µg/mL (≈ 991 µM) | 128 µg/mL (≈ 496 µM) | 128 µg/mL (≈ 496 µM) | 256 µg/mL (≈ 991 µM) | 512 µg/mL (≈ 1980 µM) | 256 µg/mL (≈ 991 µM) | 256 µg/mL (≈ 991 µM) | 64 µg/mL (≈ 248 µM) | – | –
Fc1ccc(CN(Cc2nnn[nH]2)c2ccccc2)cc1 | 128 µg/mL (≈ 452 µM) | 64 µg/mL (≈ 226 µM) | 64 µg/mL (≈ 226 µM) | 32 µg/mL (≈ 113 µM) | 64 µg/mL (≈ 226 µM) | 32 µg/mL (≈ 113 µM) | 64 µg/mL (≈ 226 µM) | 64 µg/mL (≈ 226 µM) | 16 µg/mL (≈ 56.5 µM) | 256 µg/mL (≈ 904 µM) | 16 µg/mL (≈ 56.5 µM) | 64 µg/mL (≈ 226 µM) | 1.26 | 4.2
